# Data reported in patent US11046716B2, “Beta-lactamase inhibitors” (priority 2015, dated 2021).
# How the values were obtained:
# SHV-5 = molecular target: T1, SHV-5 (Klebsiella pneumoniae, UniProt P0A3M1); experiment: β-lactamase enzyme inhibition assay, SHV-5 (cefotaxime substrate); assay type: biochemical
# T1 construct: made in house; host or cells: E. coli BL21(DE3)
# Summary of the method: (§1)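 Native untagged enzymes expressed in E. coli BL21(DE3), purified by cation exchange and gel filtration. Inhibitor preincubated with enzyme 15 min at 37 °C; hydrolysis followed by absorbance: imipenem at 300 nm for KPC-2, cefotaxime at 260 nm for SHV-5. IC50 as concentration halving initial hydrolysis rate versus inhibitor-free wells.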
# [1] = test system: E. coli expressing the Class A Extended Spectrum Beta-Lactamase (ESBL) CTX-M-15; experiment: Broth microdilution MIC assay with ceftazidime, E. coli CTX-M-15; assay type: cell-based; conditions: Fixed CAZ (ceftazidime) 4 μg/mL; E. coli ESBL4 CTX-M-15
# Summary of the method: (§2)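 Potentiation format: the β-lactam was held at 4 μg/ml while the test compound was serially diluted, and growth was scored visually after overnight (16-20 h) incubation at 37° C.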
# [2] = test system: K. pneumoniae expressing the class A carbapenemase KPC-2 and the class B carbapenemase VIM-4; experiment: Broth microdilution MIC assay with meropenem, K. pneumoniae KPC-2 and VIM-4; assay type: cell-based; conditions: Fixed Mero (meropenem) 4 μg/mL; K. p. A-1797 KPC-2 VIM-4
# Summary of the method: as §2
# [3] = test system: K. pneumoniae producing the Class D carbapenemase OXA-48; experiment: Broth microdilution MIC assay with meropenem, K. pneumoniae OXA-48; assay type: cell-based; conditions: Fixed Mero (meropenem) 4 μg/mL; K. p. 11978 OXA-48
# Summary of the method: as §2
# [4] = test system: E. cloacae expressing the Class C P99; experiment: Broth microdilution MIC assay with ceftazidime, E. cloacae P99; assay type: cell-based; conditions: Fixed CAZ (ceftazidime) 4 μg/mL; E. cl. 144200 p99 AmpC
# Summary of the method: as §2
# KPC-2 = molecular target: T2, KPC-2 (Klebsiella pneumoniae, UniProt Q9F663); experiment: β-lactamase enzyme inhibition assay, KPC-2 (imipenem substrate); assay type: biochemical; conditions: Class A; imipenem substrate, 300 nm; read-out: KPC-2
# T2 construct: made in house; host or cells: E. coli BL21(DE3)
# T2 sequence (Q9F663 25-293, looked up): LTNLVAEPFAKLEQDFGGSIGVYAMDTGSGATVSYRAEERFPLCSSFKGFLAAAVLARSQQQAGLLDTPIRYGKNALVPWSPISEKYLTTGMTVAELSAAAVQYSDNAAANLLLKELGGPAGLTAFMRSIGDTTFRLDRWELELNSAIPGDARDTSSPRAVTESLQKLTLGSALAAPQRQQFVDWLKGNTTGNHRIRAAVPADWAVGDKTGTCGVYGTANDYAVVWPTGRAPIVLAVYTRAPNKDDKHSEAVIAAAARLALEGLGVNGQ
# Summary of the method: as §1
# [5] = test system: P. aeruginosa expressing the Class B carbapenemase VIM-2; experiment: Broth microdilution MIC assay with meropenem, P. aeruginosa VIM-2; assay type: cell-based; conditions: Fixed Mero (meropenem) 4 μg/mL; P. aerug. 2775 VIM-2
# Summary of the method: as §2
# VIM-2 = molecular target: T3, VIM-2 (Escherichia coli, UniProt Q5U7L7); experiment: β-lactamase enzyme inhibition assay, VIM-2 (nitrocefin substrate); assay type: biochemical; conditions: Class B; nitrocefin substrate, 486 nm; read-out: VIM-2
# T3 construct: made in house; host or cells: E. coli BL21(DE3)
# Summary of the method: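 IC50 reflects the inhibitor concentration cutting the initial nitrocefin hydrolysis rate by half, compared with control wells lacking inhibitor. Substrate was used at 100 μM final after a 15 min, 37 °C enzyme–inhibitor preincubation.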
# AmpC = molecular target: T4, AmpC (Enterobacter cloacae, UniProt P05364); experiment: β-lactamase enzyme inhibition assay, p99 AmpC (nitrocefin substrate); assay type: biochemical
# T4 construct: made in house; host or cells: E. coli BL21(DE3)
# T4 sequence (P05364 21-381): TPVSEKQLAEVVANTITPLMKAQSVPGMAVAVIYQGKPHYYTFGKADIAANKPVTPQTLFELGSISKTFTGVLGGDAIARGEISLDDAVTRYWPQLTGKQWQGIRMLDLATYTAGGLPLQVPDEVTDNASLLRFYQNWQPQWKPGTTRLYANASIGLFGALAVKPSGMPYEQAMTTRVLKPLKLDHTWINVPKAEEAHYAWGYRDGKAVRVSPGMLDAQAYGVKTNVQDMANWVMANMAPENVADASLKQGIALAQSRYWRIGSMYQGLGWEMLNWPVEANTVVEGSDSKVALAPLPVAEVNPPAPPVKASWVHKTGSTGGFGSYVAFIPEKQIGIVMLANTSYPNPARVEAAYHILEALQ
# Summary of the method: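 Native untagged enzymes expressed in E. coli BL21(DE3), purified by cation exchange and gel filtration. Inhibitor preincubated with enzyme 15 min at 37 °C; hydrolysis followed by absorbance. IC50 as concentration halving initial hydrolysis rate versus inhibitor-free wells.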
# OXA-48 = OXA-48 (UniProt Q6XEC0); experiment: β-lactamase enzyme inhibition assay, Class D oxacillinase; assay type: biochemical; conditions: read-out: OXA-48
# [6] = test system: K. pneumoniae expressing the Class A carbapenemase KPC-2; experiment: Broth microdilution MIC assay with meropenem, K. pneumoniae KPC-2; assay type: cell-based; conditions: Fixed Mero (meropenem) 4 μg/mL; K. p. 156319 KPC-3
# Summary of the method: as §2
# T1 sequence (P0A3M1 22-286): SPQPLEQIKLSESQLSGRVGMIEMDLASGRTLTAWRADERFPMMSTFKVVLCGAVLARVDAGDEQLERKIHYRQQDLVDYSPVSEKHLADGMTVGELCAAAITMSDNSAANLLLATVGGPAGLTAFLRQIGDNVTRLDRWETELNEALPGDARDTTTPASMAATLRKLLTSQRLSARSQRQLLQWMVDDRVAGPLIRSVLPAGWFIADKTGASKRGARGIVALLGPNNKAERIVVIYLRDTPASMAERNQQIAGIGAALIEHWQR
Compound,IC50 (SHV-5),MIC (μg/mL) of Exemplary Compounds in presence of fixed β-lactams: E. coli ESBL4 CTX-M-15 [1],MIC (μg/mL) of Exemplary Compounds in presence of fixed β-lactams: K. p. A-1797 KPC-2 VIM-4 [2],MIC (μg/mL) of Exemplary Compounds in presence of fixed β-lactams: K. p. 11978 OXA-48 [3],MIC (μg/mL) of Exemplary Compounds in presence of fixed β-lactams: E. cl. 144200 p99 AmpC [4],IC50 (KPC-2),MIC (μg/mL) of Exemplary Compounds in presence of fixed β-lactams: P. aerug. 2775 VIM-2 [5],IC50 (VIM-2),IC50 (AmpC),IC50 (OXA-48),MIC (μg/mL) of Exemplary Compounds in presence of fixed β-lactams: K. p. 156319 KPC-3 [6]
"NC(=O)c1ncn(CC(=O)N[C@H]2Cc3cccc(C(=O)O)c3OB2O)n1 [Example 35, (R)-3-(2-(3-carbamoyl-1H-1,2,4-triazol-1-yl)acetamido)-2-hydroxy-3,4-dihydro-2H-benzo[e][1,2]oxaborinine-8-carboxylic acid]",< 100 nM,C (C represents an MIC of <1 μg/mL),A (A represents an MIC>16 μg/mL),B (B represents an MIC between 1 and 16 μg/mL inclusive),C (C represents an MIC of <1 μg/mL),< 100 nM,B (B represents an MIC between 1 and 16 μg/mL inclusive),1000 to 10000 nM,< 100 nM,1000 to 10000 nM,B (B represents an MIC between 1 and 16 μg/mL inclusive)
"NCCn1cncc1C(=O)N[C@H]1Cc2cccc(C(=O)O)c2OB1O [Example 73, (R)-3-(1-(2-aminoethyl)-1H-imidazole-5-carboxamido)-2-hydroxy-3,4-dihydro-2H-benzo[e][1,2]oxaborinine-8-carboxylic acid]",< 100 nM,C (C represents an MIC of <1 μg/mL),B (B represents an MIC between 1 and 16 μg/mL inclusive),B (B represents an MIC between 1 and 16 μg/mL inclusive),C (C represents an MIC of <1 μg/mL),< 100 nM,C (C represents an MIC of <1 μg/mL),100 to 1000 nM,< 100 nM,100 to 1000 nM,B (B represents an MIC between 1 and 16 μg/mL inclusive)
"NCc1nnc(CC(=O)N[C@H]2Cc3cccc(C(=O)O)c3OB2O)s1 [Example 67, (R)-3-(2-(5-(aminomethyl)-1,3,4-thiadiazol-2-yl)acetamido)-2-hydroxy-3,4-dihydro-2H-benzo[e][1,2]oxaborinine-8-carboxylic acid]",< 100 nM,C (C represents an MIC of <1 μg/mL),B (B represents an MIC between 1 and 16 μg/mL inclusive),B (B represents an MIC between 1 and 16 μg/mL inclusive),C (C represents an MIC of <1 μg/mL),< 100 nM,C (C represents an MIC of <1 μg/mL),100 to 1000 nM,< 100 nM,100 to 1000 nM,B (B represents an MIC between 1 and 16 μg/mL inclusive)
"O=C(Cn1cc(CO)nn1)N[C@H]1Cc2cccc(C(=O)O)c2OB1O [Example 1, (R)-2-hydroxy-3-(2-(4-(hydroxymethyl)-1H-1,2,3-triazol-1-yl)acetamido)-3,4-dihydro-2H-benzo[e][1,2]oxaborinine-8-carboxylic acid]",< 100 nM,C (C represents an MIC of <1 μg/mL),B (B represents an MIC between 1 and 16 μg/mL inclusive),B (B represents an MIC between 1 and 16 μg/mL inclusive),C (C represents an MIC of <1 μg/mL),< 100 nM,B (B represents an MIC between 1 and 16 μg/mL inclusive),1000 to 10000 nM,< 100 nM,100 to 1000 nM,B (B represents an MIC between 1 and 16 μg/mL inclusive)
"NCC(O)Cc1cn(CC(=O)N[C@H]2Cc3cccc(C(=O)O)c3OB2O)nn1 (stereo partly drawn) [Example 92, (3R)-3-(2-(4-(3-amino-2-hydroxypropyl)-1H-1,2,3-triazol-1-yl)acetamido)-2-hydroxy-3,4-dihydro-2H-benzo[e][1,2]oxaborinine-8-carboxylic acid]",100 to 1000 nM,C (C represents an MIC of <1 μg/mL),B (B represents an MIC between 1 and 16 μg/mL inclusive),B (B represents an MIC between 1 and 16 μg/mL inclusive),C (C represents an MIC of <1 μg/mL),< 100 nM,C (C represents an MIC of <1 μg/mL),< 100 nM,< 100 nM,1000 to 10000 nM,C (C represents an MIC of <1 μg/mL)
"NCc1cc(-c2cn(CC(=O)N[C@H]3Cc4cccc(C(=O)O)c4OB3O)nn2)cs1 [Example 55, (R)-3-(2-(4-(5-(aminomethyl)thiophen-3-yl)-1H-1,2,3-triazol-1-yl)acetamido)-2-hydroxy-3,4-dihydro-2H-benzo[e][1,2]oxaborinine-8-carboxylic acid]",< 100 nM,C (C represents an MIC of <1 μg/mL),B (B represents an MIC between 1 and 16 μg/mL inclusive),B (B represents an MIC between 1 and 16 μg/mL inclusive),C (C represents an MIC of <1 μg/mL),< 100 nM,B (B represents an MIC between 1 and 16 μg/mL inclusive),100 to 1000 nM,< 100 nM,100 to 1000 nM,C (C represents an MIC of <1 μg/mL)
"N=C(N)NCC(O)Cc1cn(CC(=O)N[C@H]2Cc3cccc(C(=O)O)c3OB2O)nn1 (stereo partly drawn) [Example 93, (3R)-3-(2-(4-(3-guanidino-2-hydroxypropyl)-1H-1,2,3-triazol-1-yl)acetamido)-2-hydroxy-3,4-dihydro-2H-benzo[e][1,2]oxaborinine-8-carboxylic acid]",< 100 nM,C (C represents an MIC of <1 μg/mL),B (B represents an MIC between 1 and 16 μg/mL inclusive),B (B represents an MIC between 1 and 16 μg/mL inclusive),C (C represents an MIC of <1 μg/mL),< 100 nM,C (C represents an MIC of <1 μg/mL),100 to 1000 nM,< 100 nM,1000 to 10000 nM,B (B represents an MIC between 1 and 16 μg/mL inclusive)
